Literature values, collected in PMC8025584, “Identification of multipotent drugs for COVID-19 therapeutics with the evaluation of their SARS-CoV2 inhibitory activity” (Computational and Structural Biotechnology Journal, 2021).
Structures can show the parent of a compound that is named as a salt. Where two headings read alike, the source gives them in different places. Where no end group is shown, it is not given here.

System: differentially expressed human proteins in COVID-19
Conditions: cited from earlier work
[1] = gene CACNA1A, drug-gene interaction listed in DGIdb export, ref DGIdb
[2] = gene TNF, drug-gene interaction listed in DGIdb export, ref DGIdb
[3] = gene GAK, drug-gene interaction listed in DGIdb export, ref DGIdb

For C[C@H](NC(=O)C(=O)Nc1ccccc1C(C)(C)C)C(=O)N[C@@H](CC(=O)O)C(=O)COc1c(F)c(F)cc(F)c1F, the interaction_types (gene CASP4, ref DGIdb) is listed as “inhibitor” and the interaction_types (gene CASP5, ref DGIdb) is listed as “inhibitor”.

In the case of CC(C)c1ccc2oc3nc(N)c(C(=O)O)cc3c(=O)c2c1 [AMLEXANOX, reference compound], the interaction_types (gene S100A12, ref DGIdb) is given as “antagonist” and the interaction_types (gene S100A13, drug-gene interaction listed in DGIdb export, ref DGIdb) is given as “antagonist”.

For NCCc1c[nH]cn1 [HISTAMINE], the interaction_types is given as “activator”.

For CC(OC(=O)NCC1(CC(=O)O)CCCCC1)OC(=O)C(C)C (stereo not drawn) [GABAPENTIN ENACARBIL, reference compound], the interaction_types [1] is listed as “modulator”.

In the case of O=C(O)Cc1cccc(-c2cc(CCCCCCc3ccc(O[C@H]4O[C@H](CO)[C@@H](O)[C@H](O)[C@@H]4O)c(-c4cccc(CC(=O)O)c4)c3)ccc2O[C@H]2O[C@H](CO)[C@@H](O)[C@H](O)[C@@H]2O)c1 [BIMOSIAMOSE], the interaction_types (gene SELL, ref DGIdb) is listed as “inhibitor”.

In the case of LIPEGFILGRASTIM, the interaction_types (gene CSF3R, ref DGIdb) is given as “agonist”.

In the case of COc1cc([C@@H]2c3cc4c(cc3[C@H](O)[C@H]3COC(=O)[C@H]23)OCO4)cc(OC)c1OC [PODOFILOX, reference compound], the interaction_types (gene TUBA4A, ref DGIdb) is given as “inhibitor”.

In the case of NS(=O)(=O)c1cc2c(cc1C(F)(F)F)NC(Cc1ccccc1)NS2(=O)=O (stereo not drawn) [BENDROFLUMETHIAZIDE], the interaction_types (gene CA1, ref DGIdb) is given as “inhibitor”.

In the case of CN1CC[C@]23c4c5ccc(O)c4O[C@H]2[C@@H](O)C=C[C@H]3[C@H]1C5 [MORPHINE], the interaction_types is listed as “activator”.

For Cc1ccc2c(=O)c3cccc(CC(=O)O)c3oc2c1C [VADIMEZAN], the interaction_types [2] is given as “inducer”.

For NADROPARIN, the interaction_types (gene FOS, ref DGIdb) is given as “inhibitor”.

In the case of COc1ccccc1OCC(O)COC(N)=O (stereo not drawn) [METHOCARBAMOL], the interaction_types (gene CA1, ref DGIdb) is listed as “inhibitor”.

In the case of C=CCC1=C(C)C(OC(=O)[C@@H]2[C@@H](C=C(C)C)C2(C)C)CC1=O (stereo partly drawn) [BIOALLETHRIN], the interaction_types [1] is listed as “blocker”.

For Nc1ncnc2c1ncn2[C@@H]1O[C@H](COP(=O)(O)OP(=O)(O)O)[C@@H](O)[C@H]1O [ADENOSINE DIPHOSPHATE], the interaction_types (gene P2RY13, ref DGIdb) is listed as “agonist”.

For LVVYPWT [SPINORPHIN], the interaction_types (gene FPR1, ref DGIdb) is given as “antagonist”.

In the case of N#Cc1ccc(C(c2ccc(C#N)cc2)n2cncn2)cc1 [LETROZOLE], the interaction_types (gene CYP19A1, ref DGIdb) is listed as “antagonist¦inhibitor”.

For CCOc1ccc(-c2ccc(Cn3c(CC(C)(C)C(=O)O)c(SC(C)(C)C)c4cc(OCc5ccc(C)cn5)ccc43)cc2)cn1 [FIBOFLAPON], the interaction_types (gene ALOX5AP, ref DGIdb) is listed as “inhibitor”.

In the case of COc1cc(C)c(/C=C/C(C)=C/C=C/C(C)=C/C(=O)O)c(C)c1C [ACITRETIN], the interaction_types (gene RXRB, ref DGIdb) is listed as “agonist”.

For TRASTUZUMAB EMTANSINE, the interaction_types is listed as “inhibitor”.

In the case of CC(C)(C#N)c1cc(Cn2cncn2)cc(C(C)(C)C#N)c1 [ANASTROZOLE], the interaction_types (gene CYP19A1, ref DGIdb) is given as “inhibitor”.

In the case of POLAPREZINC, the interaction_types [2] is listed as “inhibitor”.

For NCC1(CC(=O)O)CCCCC1 [GABAPENTIN, reference compound], the interaction_types [1] is given as “modulator”.

In the case of CN(c1ncccc1CNc1nc(Nc2ccc3c(c2)CC(=O)N3)ncc1C(F)(F)F)S(C)(=O)=O [PF-00562271], the interaction_types (gene PTK2B, ref DGIdb) is listed as “inhibitor”.

In the case of CC(C)CCC[C@@H](C)[C@H]1CC[C@H]2[C@@H]3CC=C4C[C@@H](O)CC[C@]4(C)[C@H]3CC[C@]12C [CHOLESTEROL], the interaction_types (gene CLEC4E, ref DGIdb) is given as “ligand”.

In the case of c1ccc(-c2[nH]ncc2-c2ccnc3ccccc23)nc1 [chembl:CHEMBL261454], the interaction_types [3] is given as “inhibitor”.

For CCN1CCCC1CNC(=O)c1cc(S(N)(=O)=O)ccc1OC (stereo not drawn) [SULPIRIDE], the interaction_types (gene CA1, ref DGIdb) is listed as “inhibitor”.

For O=C(CCc1ccc(O)cc1)c1c(O)cc(O)cc1O [PHLORETIN], the interaction_types (gene AQP9, ref DGIdb) is listed as “inhibitor”.

For C/C(=C\c1csc(C)n1)[C@@H]1C[C@@H]2O[C@]2(C)CCC[C@H](C)[C@H](O)[C@@H](C)C(=O)C(C)(C)[C@@H](O)CC(=O)N1 [IXABEPILONE], the interaction_types (gene TUBA4A, ref DGIdb) is given as “inhibitor”.

In the case of CNC(=O)[C@@H](NC(=O)[C@H](CC(C)C)[C@H](O)C(=O)NO)C(C)(C)C, the interaction_types (gene MMP8, ref DGIdb) is listed as “inhibitor”.

For CCC[C@H](Nc1nc(-c2ccc(NC(=O)NCC)c(OC)c2)ncc1C)c1cccnc1 [LEXIBULIN], the interaction_types (gene TUBA4A, ref DGIdb) is given as “inhibitor”.

For BELIMUMAB, the interaction_types (gene TNFSF13B, drug-gene interaction listed in DGIdb export, ref DGIdb) is given as “antibody¦inhibitor¦modulator”.

For CC1(C)O[C@@H]2[C@@H](CO[C@@]3(COS(N)(=O)=O)OC(C)(C)O[C@@H]23)O1 [TOPIRAMATE], the interaction_types (gene CA1, ref DGIdb) is given as “inhibitor”.

In the case of NS(=O)(=O)c1ccc(S(=O)(=O)Nc2cccc3c(Cl)c[nH]c23)cc1, the interaction_types (gene CA1, ref DGIdb) is given as “inhibitor”.

For PEGFILGRASTIM, the interaction_types (gene CSF3R, ref DGIdb) is given as “agonist”.

In the case of CC/C(=C(\c1ccc(O)cc1)c1ccc(OCCNC)cc1)c1ccccc1 [ENDOXIFEN], the interaction_types (gene CYP19A1, ref DGIdb) is given as “inhibitor”.

In the case of COc1cc2nc(N3CCN(C(=O)c4ccco4)CC3)nc(N)c2cc1OC [PRAZOSIN], the interaction_types (gene KCNH7, ref DGIdb) is given as “inhibitor”.

For C[C@]1(C(=O)N(CCCC(=O)O)Cc2cccc(Cl)c2)CCN1C(=O)c1csc2ccccc12 [GLPG-0974], the interaction_types (gene FFAR2, ref DGIdb) is listed as “antagonist”.

For NS(=O)(=O)c1cc(C2(O)NC(=O)c3ccccc32)ccc1Cl (stereo not drawn) [CHLORTHALIDONE, reference compound], the interaction_types (gene CA1, ref DGIdb) is given as “inhibitor”.

For CC(C)C[C@H](CN)CC(=O)O [PREGABALIN, reference compound], the interaction_types is given as “modulator¦inhibitor”.

For NS(=O)(=O)c1cc(Cl)c(Cl)c(S(N)(=O)=O)c1 [DICHLORPHENAMIDE], the interaction_types (gene CA1, ref DGIdb) is given as “inhibitor”.

For C=C1C[C@@H]2CC[C@@]34C[C@H]5O[C@H]6[C@@H](O3)[C@H]3O[C@H](CC[C@@H]3O[C@H]6[C@H]5O4)CC(=O)C[C@@H]3[C@@H](OC)[C@@H](C[C@H](O)CN)O[C@H]3C[C@H]3O[C@@H](CC[C@@H]1O2)C[C@@H](C)C3=C [ERIBULIN MESYLATE], the interaction_types (gene TUBA4A, ref DGIdb) is given as “inhibitor”.

For INFLIXIMAB, the interaction_types [2] is listed as “inhibitor”.

In the case of COc1cc(/C=N/NC(=O)c2ccc3c(c2)OCO3)ccc1OCc1ccccc1 [chembl:CHEMBL1290251], the interaction_types (gene FPR1, ref DGIdb) is given as “agonist”.

In the case of DENENICOKIN, the interaction_types (gene IL2RG, ref DGIdb) is listed as “agonist”.

In the case of COC1=CC(c2cc3ccccc3[nH]2)=N/C1=C\c1[nH]c(C)cc1C [OBATOCLAX MESYLATE], the interaction_types (gene BCL2A1, ref DGIdb) is listed as “inhibitor”.

In the case of CC[C@]1(O)C[C@@H]2CN(CCc3c([nH]c4ccccc34)[C@@](C(=O)OC)(c3cc4c(cc3OC)N(C)[C@H]3[C@@](O)(C(=O)OC)[C@H](OC(C)=O)[C@]5(CC)C=CCN6CC[C@]43[C@@H]65)C2)C1 [VINBLASTINE SULFATE], the interaction_types (gene TUBA4A, ref DGIdb) is listed as “inhibitor”.

In the case of SARGRAMOSTIM, the interaction_types (gene CSF2RB, ref DGIdb) is listed as “agonist”.

In the case of Nc1nc2nc[nH]c2c(=O)[nH]1 [GUANINE], the interaction_types (gene GCH1, ref DGIdb) is given as “inhibitor”.

For C[C@H]1c2cccc(O)c2C(=O)C2=C(O)[C@]3(O)C(=O)C(C(N)=O)=C(O)[C@@H](N(C)C)[C@@H]3[C@@H](O)[C@@H]21 [DOXYCYCLINE], the interaction_types (gene MMP8, ref DGIdb) is listed as “inhibitor”.

In the case of CCS(=O)(=O)N1CC(CC#N)(n2cc(-c3ncnc4[nH]ccc34)cn2)C1 [BARICITINIB], the interaction_types [3] is given as “inhibitor” and the interaction_types (gene PTK2B, ref DGIdb) is given as “inhibitor”.

For Cc1nc(Nc2ncc(C(=O)Nc3c(C)cccc3Cl)s2)cc(N2CCN(CCO)CC2)n1 [DASATINIB], the interaction_types (gene FGR, ref DGIdb) is listed as “inhibitor” and the interaction_types (gene HCK, drug-gene interaction listed in DGIdb export, ref DGIdb) is listed as “inhibitor”.

For RILONACEPT, the interaction_types (gene IL1RN, ref DGIdb) is given as “binder”.

For COc1ccc(CCN(C)CCCC(C#N)(c2ccc(OC)c(OC)c2)C(C)C)cc1OC (stereo not drawn), the interaction_types [1] is listed as “inhibitor”.

For O=P(O)(O)C(Cl)(Cl)P(=O)(O)O [CLODRONIC ACID], the interaction_types (gene SLC25A4, ref DGIdb) is listed as “inhibitor”.

For CCCCCCCN(CC)CCCC(O)c1ccc(NS(C)(=O)=O)cc1 (stereo not drawn) [IBUTILIDE, reference compound], the interaction_types (gene KCNH7, ref DGIdb) is listed as “inhibitor”.

For CC/C=C\C/C=C\C/C=C\C/C=C\C/C=C\C/C=C\CCC(=O)O [DOCONEXENT], the interaction_types (gene RXRB, ref DGIdb) is given as “activator”.

In the case of C[C@H]1CC(CN)(CC(=O)O)C[C@@H]1C [ATAGABALIN], the interaction_types [1] is listed as “modulator”.

For Nc1ncnc2c1ncn2[C@@H]1O[C@H](COP(=O)(O)O)[C@@H](O)[C@H]1O [ADENOSINE PHOSPHATE], the interaction_types (gene PRKAB1, ref DGIdb) is listed as “activator”.

For Nc1cnc(-c2cc(Cl)cc(Cl)c2Cl)c(N)n1 [[…]], the interaction_types [1] is given as “blocker”.

For O=C1Nc2ccccc2/C1=C1/Nc2ccccc2C1=O [INDIRUBIN], the interaction_types is given as “substrate”.

In the case of CCCN(c1ccncc1F)n1cc(C)c2ccccc21 [[…]], the interaction_types (gene KCNH7, ref DGIdb) is listed as “blocker”.

For CC(C)(Oc1ccc(CCNC(=O)c2ccc(Cl)cc2)cc1)C(=O)O [BEZAFIBRATE], the interaction_types (gene RXRB, ref DGIdb) is listed as “agonist”.

For NC(=O)c1cnc(N[C@@H]2CCCC[C@@H]2N)nc1Nc1cccc(-n2nccn2)c1 [PRT-2607], the interaction_types (gene FGR, ref DGIdb) is given as “inhibitor”.

In the case of CN[C@@H](C)[C@@H](O)c1ccccc1 [PSEUDOEPHEDRINE], the interaction_types [2] is given as “inhibitor”.

For CCOC(=O)c1ccc(C#Cc2ccc3c(c2)C(C)(C)CCS3)nc1 [TAZAROTENE, reference compound], the interaction_types (gene RXRB, ref DGIdb) is given as “agonist”.

For C[C@H]1[C@@H](O)O[C@@H]2O[C@@]3(C)CC[C@H]4[C@H](C)CC[C@@H]1[C@@]24OO3 [ARTENIMOL], the interaction_types (gene PFN1, ref DGIdb) is listed as “ligand”.

For NS(=O)(=O)c1cc2c(cc1Cl)N=C(CSCc1ccccc1)NS2(=O)=O [BENZTHIAZIDE, reference compound], the interaction_types (gene CA1, ref DGIdb) is listed as “inhibitor”.

For BAMINERCEPT, the interaction_types (gene TNFSF14, ref DGIdb) is given as “inhibitor”.
